For 21 molecules, IC50 results are on record in patent publication US12679848B2, “Plasma kallikrein inhibitors” (Merck Sharp & Dohme LLC, priority 2020, dated 2026).

One may read the IC50 as the midpoint of a concentration-inhibition curve.

Test [1] addresses human factor XIa (Homo sapiens, UniProt P03951). Kind of test: Factor XIa Assay. It counts as biochemical. The settings on record: human factor XIa 0.04 nM, substrate GPR-AFC, 30 min pre-incubation, 25° C., pH 7.4; read-out: FXIa IC50. The protocol:
(§1) The effectiveness of a compound of the present invention as an inhibitor of Coagulation factor XIa can be determined using a relevant purified serine protease, and an appropriate synthetic substrate. The rate of hydrolysis of the chromogenic or fluorogenic substrate by the relevant serine protease was measured both in the absence and presence of compounds of the present invention. Assays were conducted at rt or at 37° C. […] A decrease in the rate of fluorescence change in the presence of inhibitor is indicative of enzyme inhibition. Such methods are known to one skilled in the art. The results of this assay are expressed as the half-maximal inhibitory concentrations (IC50), or the inhibitory constant, Ki.
Compounds were pre-incubated for 30 min at 25° C. with human (0.04 nM) factor XIa in 50 mM HEPES buffer with 150 mM sodium chloride, 5 mM calcium chloride, 0.1% PEG 8000, pH 7.4. factor XIa enzymatic activity was determined by addition of the substrate glycine-proline-arginine-7-amido-4-trifluoromethylcoumarin (GPR-AFC) and measurement of the fluorescence at 400/505 nm after a 60 min incubation at 25° C. The % inhibition for each data point was calculated from the data and analyzed using the log (inhibitor) vs. response four parameters equation to determine the half-maximal inhibitory concentrations (IC50). The IC50 were converted to equilibrium inhibitory constants (Ki) using the Cheng-Prusoff equation.

In test [2] the target is T1, Human plasma kallikrein (Homo sapiens, UniProt P03952).
T1 construct: yields a heavy chain (371 amino acids) and a light chain (248 amino acids); The active site of plasma kallikrein is contained in the light chain; purchased Enzyme Research Laboratories
Briefly: Plasma Kallikrein Assay. Format: biochemical. The settings on record: purified Human plasma kallikrein 0.5 nM, substrate Acetyl-K-P-R-AFC, HEPES pH 7.4; read-out: PKal IC50. The protocol: as §1, with “plasma kallikrein” for “Coagulation factor XIa”
Plasma kallikrein determinations were made in 50 mM HEPES buffer at pH 7.4 containing 150 mM NaCl, 5 mM CaCl2), and 0.1% PEG 8000 (polyethylene glycol; Fisher Scientific). Determinations were made using purified Human plasma kallikrein at a final concentration of 0.5 nM (Enzyme Research Laboratories) and the synthetic substrate, Acetyl-K—P—R-AFC (Sigma #C6608) at a concentration of […].
Times required to achieve equilibration between enzyme and inhibitor were determined in control experiments. […] IC50 was determined by inflection point from a four parameter logistic curve fit. Ki was calculated using the Cheng Prusoff equation, Ki=IC50/[…](1+([S]/Km)).

T1 sequence (P03952 391-638 limits assumed): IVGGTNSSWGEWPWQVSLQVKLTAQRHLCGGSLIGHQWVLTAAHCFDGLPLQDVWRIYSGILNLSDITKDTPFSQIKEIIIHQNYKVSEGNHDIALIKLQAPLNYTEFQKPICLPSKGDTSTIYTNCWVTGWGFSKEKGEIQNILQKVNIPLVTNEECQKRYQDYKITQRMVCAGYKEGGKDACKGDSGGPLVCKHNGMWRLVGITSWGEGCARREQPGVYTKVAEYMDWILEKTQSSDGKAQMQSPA
T1 sequence (P03952 20-390 partner limits assumed): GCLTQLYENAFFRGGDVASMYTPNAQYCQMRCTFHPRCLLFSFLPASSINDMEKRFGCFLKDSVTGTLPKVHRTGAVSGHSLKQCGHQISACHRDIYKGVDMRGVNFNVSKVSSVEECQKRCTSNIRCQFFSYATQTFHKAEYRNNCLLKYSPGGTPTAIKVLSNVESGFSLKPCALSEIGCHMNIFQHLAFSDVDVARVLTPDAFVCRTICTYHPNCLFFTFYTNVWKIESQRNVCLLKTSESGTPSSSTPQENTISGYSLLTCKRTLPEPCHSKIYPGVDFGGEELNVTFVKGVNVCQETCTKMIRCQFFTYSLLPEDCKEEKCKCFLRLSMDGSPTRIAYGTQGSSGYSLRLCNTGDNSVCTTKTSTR
Sequence of human factor XIa (P03951 388-625 limits assumed): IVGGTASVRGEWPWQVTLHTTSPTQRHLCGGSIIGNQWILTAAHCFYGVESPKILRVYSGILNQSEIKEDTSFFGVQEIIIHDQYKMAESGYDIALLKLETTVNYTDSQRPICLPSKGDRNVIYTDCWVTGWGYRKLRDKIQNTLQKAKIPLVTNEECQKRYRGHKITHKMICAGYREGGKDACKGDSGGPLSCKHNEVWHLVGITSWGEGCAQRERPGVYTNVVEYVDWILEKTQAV
Sequence of human factor XIa (P03951 19-387 partner limits assumed): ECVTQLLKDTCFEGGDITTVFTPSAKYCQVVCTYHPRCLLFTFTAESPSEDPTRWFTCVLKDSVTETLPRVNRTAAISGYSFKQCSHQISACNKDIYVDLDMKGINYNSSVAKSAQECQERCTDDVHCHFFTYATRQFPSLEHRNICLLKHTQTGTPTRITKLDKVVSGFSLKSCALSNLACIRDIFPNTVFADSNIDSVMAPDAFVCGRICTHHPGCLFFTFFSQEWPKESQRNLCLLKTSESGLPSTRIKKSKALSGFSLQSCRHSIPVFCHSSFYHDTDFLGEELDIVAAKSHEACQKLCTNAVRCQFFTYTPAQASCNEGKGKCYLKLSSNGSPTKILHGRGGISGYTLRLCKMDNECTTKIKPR

For `Nc1c(C(=O)N2CCC[C@@]3(C2)OC(=O)Nc2ccc(Cl)c(F)c23)cnn1CC(F)(F)F` [Example 1, (R)-1′-(5-Amino-1-(2,2,2-trifluoroethyl)-1H-pyrazole-4-carbonyl)-6-chloro-5-fluorospiro[benzo[d][1,3]oxazine-4,3′-piperidin]-2(1H)-one], the IC50 in test [1] is 408 nM; in test [2], 11.2 nM.

`Nc1c(C(=O)N2CCC[C@@]3(C2)OC(=O)Nc2ccc(Cl)c(F)c23)cnn1Cc1cnccn1` [Example 54, (R)-1'-(5-Amino-1-(pyrazin-2-ylmethyl)-1H-pyrazole-4-carbonyl)-6-chloro-5-fluorospiro[benzo[d][1,3]oxazine-4,3'-piperidin]-2(1H)-one]: the IC50 stood at 601 nM in test [1] and 3.4 nM in test [2].

`CC1(n2ncc(C(=O)N3CCC[C@@]4(C3)OC(=O)Nc3ccc(Cl)c(F)c34)c2N)CCS(=O)(=O)C1` (single isomer, unassigned) [Example 118, (R)-1'-(5-Amino-1-((R or S)-3-methyl-1,1-dioxidotetrahydrothiophen-3-y1)-1H-pyrazole-4-carbonyl)-6-chloro-5-fluorospiro[benzo[d][1,3]oxazine-4,3'-piperidin]-2(1H)-one]: the figures for the IC50 in test [1] and in test [2] were 1000 nM and 24 nM, respectively.

For `Cc1noc(C)c1Cn1ncc(C(=O)N2CCC[C@@]3(C2)OC(=O)Nc2ccc(Cl)c(F)c23)c1N` [Example 11, (R)-1'-(5-Amino-1-((3,5-dimethylisoxazol-4-yl)methyl)-1H-pyrazole-4-carbonyl)-6-chloro-5-fluorospiro[benzo[d][1,3]oxazine-4,3'-piperidin]-2(1H)-one], the IC50 in test [1] came to 438 nM; in test [2], 1.7 nM.

Regarding `Nc1c(C(=O)N2CCC[C@@]3(C2)OC(=O)Nc2ccc(Cl)c(F)c23)cnn1CC(F)(F)C(F)(F)F` [Example 48, (R)-1'-(5-Amino-1-(2,2,3,3,3-pentafluoropropyl)-1H-pyrazole-4-carbonyl)-6-chloro-5-fluorospiro[benzo[d][1,3]oxazine-4,3'-piperidin]-2(1H)-one], the IC50 stood at 516 nM in test [1] and 13.1 nM in test [2].

For the molecule `Cc1ccc(-n2ncc(C(=O)N3CCC[C@@]4(C3)OC(=O)Nc3ccc(Cl)c(F)c34)c2N)cc1` [Example 111, (R)-1'-(5-Amino-1-(p-toly1)-1H-pyrazole-4-carbonyl)-6-chloro-5-fluorospiro[benzo[d][1,3]oxazine-4,3'-piperidin]-2(1H)-one], the IC50 in test [1] was 2990 nM; in test [2] it was 80.3 nM.

`Nc1c(C(=O)N2CCC[C@@]3(C2)OC(=O)Nc2ccc(Cl)c(F)c23)cnn1C(C(F)(F)F)C1(F)CC1` (single isomer, unassigned) [Example 114, (R)-1'-(5-Amino-1-((R or S)-2,2,2-trifluoro-1-(1-fluorocyclopropyl)ethyl)-1H-pyrazole-4-carbonyl)-6-chloro-5-fluorospiro[benzo[d][1,3]oxazine-4,3'-piperidin]-2(1H)-one]: the values for the IC50 in test [1] and in test [2] were 103 nM and 2.8 nM, respectively.

As for `CC1(n2ncc(C(=O)N3CCC[C@@]4(C3)OC(=O)Nc3ccc(Cl)c(F)c34)c2N)CCS(=O)(=O)C1` (single isomer, unassigned) [Example 119], the IC50 came out at 1460 nM in test [1] and 21 nM in test [2].

For `COc1c(F)cc(F)cc1-n1ncc(C(=O)N2CCC[C@@]3(C2)OC(=O)Nc2ccc(Cl)c(F)c23)c1N` [Example 101, (R)-1'-(5-Amino-1-(3,5-difluoro-2-methoxyphenyl)-1H-pyrazole-4-carbonyl)-6-chloro-5-fluorospiro[benzo[d][1,3]oxazine-4,3'-piperidin]-2(1H)-one], the IC50 stood at 1310 nM in test [1] and 30.6 nM in test [2].

For the molecule `Nc1c(C(=O)N2CCC[C@@]3(C2)OC(=O)Nc2ccc(Cl)c(F)c23)cnn1Cc1ccc(Cl)cc1` [Example 42, (R)-1'-(5-Amino-1-(4-chlorobenzyl)-1H-pyrazole-4-carbonyl)-6-chloro-5-fluorospiro[benzo[d][1,3]oxazine-4,3'-piperidin]-2(1H)-one], the values for the IC50 in test [1] and in test [2] were 504 nM and 1.4 nM, respectively.

For `CN(C)c1ccccc1Cn1ncc(C(=O)N2CCC[C@@]3(C2)OC(=O)Nc2ccc(Cl)c(F)c23)c1N` [Example 41, (R)-1'-(5-Amino-1-(2-(dimethylamino)benzyl)-1H-pyrazole-4-carbonyl)-6-chloro-5-fluorospiro[benzo[d][1,3]oxazine-4,3'-piperidin]-2(1H)-one], the IC50 in test [1] was 746 nM; in test [2] it was 11.4 nM.

Consider `O=C1Nc2ccc(Cl)c(F)c2[C@@]2(CCCN(C(=O)c3cnn(Cc4ccc(F)cc4)c3O)C2)O1` [Example 132, (R)-6-Chloro-5-fluoro-1′-(1-(4-fluorobenzyl)-5-hydroxy-1H-pyrazole-4-carbonyl)spiro[benzo[d][1,3]oxazine-4,3′-piperidin]-2(1H)-one], for which the figures for the IC50 in test [1] and in test [2] were ≥ 10000 nM and 17.8 nM, respectively.

As for `Nc1c(C(=O)N2CCC[C@@]3(C2)OC(=O)Nc2ccc(Cl)c(F)c23)cnn1-c1ccccc1` [Example 57, (R)-1'-(5-Amino-1-phenyl-1H-pyrazole-4-carbonyl)-6-chloro-5-fluorospiro[benzo[d][1,3]oxazine-4,3'-piperidin]-2(1H)-one], in test [1], the IC50 turned out to be 4140 nM.

Turning to `Nc1c(C(=O)N2CCC[C@@]3(C2)OC(=O)Nc2ccc(Cl)c(F)c23)cnn1-c1cccc(C(=O)O)c1` [Example 68, (R)-3-(5-Amino-4-(6-chloro-5-fluoro-2-oxo-1,2-dihydrospiro[benzo[d][1,3]oxazine-4,3'-piperidine]-1'-carbonyl)-1H-pyrazol-1-yl)benzoic acid], the IC50 in test [1] came to 1480 nM; in test [2], 13.5 nM.

Regarding `Nc1c(C(=O)N2CCC[C@@]3(C2)OC(=O)Nc2ccc(Cl)c(F)c23)cnn1C1(c2ccc(F)cc2)CC1` [Example 28, (R)-1'-(5-Amino-1-(1-(4-fluorophenyl)cyclopropyl)-1H-pyrazole-4-carbonyl)-6-chloro-5-fluorospiro[benzo[d][1,3]oxazine-4,3'-piperidin]-2(1H)-one], the IC50 in test [1] came out at 112 nM; in test [2], 2.9 nM.

Regarding `Nc1c(C(=O)N2CCC[C@@]3(C2)OC(=O)Nc2ccc(Cl)c(F)c23)cnn1Cc1ccncc1` [Example 32, (R)-1'-(5-Amino-1-(pyridin-4-ylmethyl)-1H-pyrazole-4-carbonyl)-6-chloro-5-fluorospiro[benzo[d][1,3]oxazine-4,3'-piperidin]-2(1H)-one], the IC50 in test [1] came out at 268 nM; in test [2], 1.7 nM.

Turning to `Nc1c(C(=O)N2CCC[C@@]3(C2)OC(=O)Nc2ccc(Cl)c(F)c23)cnn1-c1ccccc1F` [Example 84, (R)-1'-(5-Amino-1-(2-fluorophenyl)-1H-pyrazole-4-carbonyl)-6-chloro-5-fluorospiro[benzo[d][1,3]oxazine-4,3'-piperidin]-2(1H)-one], the figures for the IC50 in test [1] and in test [2] were 923 nM and 27.3 nM, respectively.

For the molecule `Nc1c(C(=O)N2CCC[C@@]3(C2)OC(=O)Nc2ccc(Cl)c(F)c23)cnn1Cc1ccccc1` [Example 8, (R)-1'-(5-Amino-1-benzyl-1H-pyrazole-4-carbonyl)-6-chloro-5-fluorospiro[benzo[d][1,3]oxazine-4,3'-piperidin]-2(1H)-one], the IC50 in test [1] came to 68 nM.

On to `CC[C@@H](n1ncc(C(=O)N2CCC[C@@]3(C2)OC(=O)Nc2ccc(Cl)c(F)c23)c1N)C(F)(F)F` (single isomer, unassigned) [Example 3], for which the IC50 in test [1] worked out at 105 nM.

Regarding `Nc1c(C(=O)N2CCC[C@@]3(C2)OC(=O)Nc2ccc(Cl)c(F)c23)cnn1-c1ccccc1OC(F)(F)F` [Example 72, (R)-1'-(5-Amino-1-(2-(trifluoromethoxy)phenyl)-1H-pyrazole-4-carbonyl)-6-chloro-5-fluorospiro[benzo[d][1,3]oxazine-4,3'-piperidin]-2(1H)-one], in test [1], the half-maximal inhibitory concentration (IC50) is 262 nM.

Consider `CC[C@H](n1ncc(C(=O)N2CCC[C@@]3(C2)OC(=O)Nc2ccc(Cl)c(F)c23)c1N)C(F)(F)F` (single isomer, unassigned) [Example 4], for which the IC50 in test [1] worked out at 9 nM.
